# “And” between values parts separate entries of the source, which are not always exact repeats. Identical values can stand only once.
# Key:
# hA2B AR = target: T1, hA2B AR (Homo sapiens, UniProt P29275); experiment: Radioligand competition binding assay at hA2B AR; conditions: 10 μM compound; [3H]DPCPX; HEK-293 cells; read-out: Percentage Inhibition (%) at 10 μM, hA2B AR
# T1 construct: host or cells: HEK-A2B (HEK-293T-A2B) cell line
# T1 sequence (P29275 1-332): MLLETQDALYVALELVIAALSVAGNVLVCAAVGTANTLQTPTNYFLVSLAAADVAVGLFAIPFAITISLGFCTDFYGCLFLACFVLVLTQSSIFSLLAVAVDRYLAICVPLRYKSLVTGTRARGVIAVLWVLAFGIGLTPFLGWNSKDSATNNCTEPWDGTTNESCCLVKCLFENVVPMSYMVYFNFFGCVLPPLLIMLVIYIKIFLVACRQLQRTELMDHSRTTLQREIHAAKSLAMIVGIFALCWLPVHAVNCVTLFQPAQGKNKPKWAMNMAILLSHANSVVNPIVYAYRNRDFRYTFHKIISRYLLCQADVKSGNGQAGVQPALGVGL
# Procedure: (§1) All the synthesized compounds were screened with radioligand binding assays at hARs. First, the percentage of inhibition was measured by treatment of each hAR subtype with 10 μM of each compound (Table 1).
# hA2B AR competition binding experiments were carried out in a multiscreen GF/C 96-well plate. In each well was incubated 25 µg of membranes from Euroscreen HEK-A2B cell line and prepared in laboratory, 25 nM [^3H]-DPCPX (140 Ci/mmol, 1 mCi/mL, Perkin Elmer NET974001MC) and compounds studied according to standard protocol. Non-specific binding was determined in the presence of NECA 1000 µM (Sigma E2397). The reaction mixture (Vt: 250 µL/well) was incubated at 25°C for 30 min, 200 µL was transferred to GF/C 96-well plate (Millipore, Madrid, Spain), and pretreated with binding buffer (Tris-HCl 50 Mm, EDTA 1 mM, MgCl2 5 mM, Bacitracin […], adenosine deaminase 2 U/Ml, pH = 6.5). It was then filtered and washed four times with 250 μL wash buffer (Tris-HCl 50 mM, EDTA 1 mM, MgCl2 5 mM, pH = 6.5), before being measured in a microplate beta scintillation counter (MicrobetaTrilux, PerkinElmer, Madrid, Spain).
# hA1 AR = target: T2, hA1 AR (Homo sapiens, UniProt P30542); experiment: Radioligand competition binding assay at hA1 AR; conditions: for Percentage Inhibition (%) at 10 μM, hA1 AR / inhibition at 10 µM: 10 μM compound; for Percentage Inhibition (%) at 10 μM, hA1 AR / inhibition at 10 µM / Ki: [3H]DPCPX, CHO cells; for inhibition at 10 µM: read-out: Percentage Inhibition (%) at 10 μM, hA1 AR; for Selectivity (hA1 AR:hA3 AR): ratio of Ki hA1 AR to Ki hA3 AR
# T2 construct: host or cells: CHO-A1 (CHO cells expressing hA1 AR)
# T2 sequence (P30542 1-326): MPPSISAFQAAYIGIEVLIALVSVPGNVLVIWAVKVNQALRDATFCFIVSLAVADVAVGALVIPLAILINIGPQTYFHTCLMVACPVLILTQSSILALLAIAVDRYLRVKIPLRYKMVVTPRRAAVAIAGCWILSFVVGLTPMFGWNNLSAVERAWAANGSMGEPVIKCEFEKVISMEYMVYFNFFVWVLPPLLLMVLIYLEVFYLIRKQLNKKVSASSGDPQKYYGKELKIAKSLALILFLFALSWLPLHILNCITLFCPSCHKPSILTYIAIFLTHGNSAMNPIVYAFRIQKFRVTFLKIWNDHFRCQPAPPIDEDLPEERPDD
# Procedure: as §1
# (§2) hA1, hA2A, and hA3 AR competition binding experiments were carried out in a multiscreen GF/C 96-well plate (Millipore, Madrid, Spain) pretreated with binding buffer (Hepes 20 mM, NaCl 100 mM, MgCl2 10 mM, 2 U/mL adenosine deaminase, pH = 7.4 for hA1 AR; Tris-HCl 50 mM, EDTA 1 mM, MgCl2 10 mM, 2 U/mL adenosine deaminase, pH = 7.4 for hA2A AR; and Tris-HCl 50 mM, EDTA 1 mM, MgCl2 5 mM, 2 U/mL adenosine deaminase, pH = 7.4 for hA3 AR, respectively). In each well was incubated 5 µg of membranes from Euroscreen CHO-A1 cell line, 5µg of membranes from Hela-A2A cell line, or 30µg of membranes from Hela-A3 cell line and prepared in laboratory: 1 nM [^3H]-DPCPX (140 Ci/mmol, 1 mCi/Ml, Perkin Elmer NET974001MC) for hA1 AR; 1 nM [^3H]-ZM241385 (50 Ci/mmol, 1 mCi/mL, ARC-ITISA 0884) for hA2A AR; and 10 nM [^3H]-NECA (29.6 Ci/mmol, 1 mCi/mL, Perkin Elmer NET811250UC) for hA3 AR, respectively; and the compounds studied according to standard protocol. Non-specific binding was determined in the presence of R-PIA 10 µM (Sigma P4532) for hA1 AR; of NECA 50 µM (Sigma E2387) for hA2A AR; and of R-PIA 100 µM (Sigma P4532) for hA3 AR, respectively. The reaction mixture (Vt: 200 µL/well) was incubated at 25 °C for 60 min (hA1 AR), 30min (hA2A AR), or 180min (hA3 AR); whereafter it was filtered and washed four times (hA1 and hA2A AR) or six times (hA3 AR) with 250 μL wash buffer (Hepes 20 mM, NaCl 100 mM, MgCl2 10 mM pH = 7.4, for hA1 AR; Tris-HCl 50 mM, EDTA 1 mM, MgCl2 10 mM, pH = 7.4, for hA2A AR; and Tris-HCl 50mM pH = 7.4, for hA3 AR, respectively) before being measured in a microplate beta scintillation counter (MicrobetaTrilux, PerkinElmer, Madrid, Spain).
# hA2A AR = target: T3, hA2A AR (Homo sapiens, UniProt P29274); experiment: Radioligand competition binding assay at hA2A AR; conditions: 10 μM compound, [3H]ZM241385, Hela cells; for inhibition at 10 µM: read-out: Percentage Inhibition (%) at 10 μM, hA2A AR
# T3 construct: expressed in transfected cells; host or cells: Hela-A2A cell line
# Procedure: as §1, §2
# hA3 AR = target: T4, hA3 AR (Homo sapiens, UniProt P0DMS8); experiment: Radioligand competition binding assay at hA3 AR; design: expressed in transfected cells; host or cells: Hela-A3 cell line; conditions: for Percentage Inhibition (%) at 10 μM, hA3 AR / inhibition at 10 µM: 10 μM compound; for Percentage Inhibition (%) at 10 μM, hA3 AR / inhibition at 10 µM / Ki: [3H]NECA; for inhibition at 10 µM: read-out: Percentage Inhibition (%) at 10 μM, hA3 AR
# T4 sequence (P0DMS8 1-318): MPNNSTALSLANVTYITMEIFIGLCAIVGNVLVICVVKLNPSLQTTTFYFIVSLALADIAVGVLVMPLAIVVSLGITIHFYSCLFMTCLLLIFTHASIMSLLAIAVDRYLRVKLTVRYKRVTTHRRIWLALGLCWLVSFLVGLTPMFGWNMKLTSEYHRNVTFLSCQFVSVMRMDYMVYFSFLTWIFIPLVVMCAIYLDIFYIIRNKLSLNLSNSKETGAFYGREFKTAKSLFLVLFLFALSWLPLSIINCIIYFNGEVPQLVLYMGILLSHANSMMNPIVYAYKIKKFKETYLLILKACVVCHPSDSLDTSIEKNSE
# Procedure: as §1, §2
# [1] = compared with hydroxyl compound 9a
# T3 sequence (P29274 whole entry): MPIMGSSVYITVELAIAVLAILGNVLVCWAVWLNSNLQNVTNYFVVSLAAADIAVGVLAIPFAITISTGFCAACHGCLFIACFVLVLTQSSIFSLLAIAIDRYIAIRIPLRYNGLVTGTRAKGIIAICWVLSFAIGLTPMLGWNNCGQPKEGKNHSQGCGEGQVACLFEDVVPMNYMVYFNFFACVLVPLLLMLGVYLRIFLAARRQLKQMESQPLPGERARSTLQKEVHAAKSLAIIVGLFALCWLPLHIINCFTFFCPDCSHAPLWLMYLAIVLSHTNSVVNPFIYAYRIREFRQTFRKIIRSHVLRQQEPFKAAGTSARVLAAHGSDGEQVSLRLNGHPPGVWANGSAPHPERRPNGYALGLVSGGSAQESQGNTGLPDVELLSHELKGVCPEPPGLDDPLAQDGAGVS
inhibition at 10 µM (hA2B AR) [%],"Percentage Inhibition (%) at 10 μM, hA1 AR (hA1 AR) [%]",inhibition at 10 µM (hA1 AR) [%],Ki (hA1 AR) [nM],Selectivity (hA1 AR:hA3 AR) (hA1 AR),inhibition at 10 µM (hA2A AR) [%],"Percentage Inhibition (%) at 10 μM, hA3 AR (hA3 AR) [%]",inhibition at 10 µM (hA3 AR) [%],Ki (hA3 AR) [nM],Improvement of binding affinity at hA1 AR (hA1 AR; [1]),Improvement of binding affinity at hA3 AR (hA3 AR; [1]) [fold],"Percentage Inhibition (%) at 10 μM, hA2A AR (hA2A AR; 10 µM) [%]",Compound
56 ± 1,98 ± 1,> 90,98.3,1.7 and 1.74,49 ± 1,95 ± 4,> 90,56.6,–,–,–,"COc1ccc(Nc2nc(N)nc(-c3ccc(F)cc3)n2)cc1F [Compound 11b, N^2-(3-fluoro-4-methoxyphenyl)-6-(4-fluorophenyl)-1,3,5-triazine-2,4-diamine]"
65 ± 2,95 ± 1,> 90,78.1,5.87,83 ± 1,97 ± 1,> 90,13.3,about 2 fold,~5,–,"COc1ccc(-c2nc(N)nc(Nc3ccc(OC)c(F)c3)n2)cc1 [Compound 11a, N^2-(3-fluoro-4-methoxyphenyl)-6-(4-methoxyphenyl)-1,3,5-triazine-2,4-diamine]"
90 ± 1,99 ± 1,> 95,57.9,0.0875,> 95,95 ± 1,> 95,661,–,–,94 ± 3,"COc1cc(Nc2nc(N)nc(-c3ccc(O)cc3)n2)ccc1Cl [Compound 9c, 4-{4-amino-6-[(4-chloro-3-methoxyphenyl)amino]-1,3,5-triazin-2-yl}phenol]"
